Consider 4 compounds from ChEMBL document CHEMBL4270551, “Biological evaluation and structure-activity relationships of imidazole-based compounds as antiprotozoal agents” (Eur J Med Chem, 2018).

Calls of active or inactive are those of the source. The calls are words filed in the database; no cut-off is given here.

In data set [1] the test system is Trypanosoma brucei rhodesiense. In words: Antiprotozoal activity against Trypanosoma brucei rhodesiense STIB900 trypomastigote after 72 hrs by Alamar Blue assay. Particulars: STIB900, 72 h. The format is functional, organism-based.
The test system of data set [2] is Trypanosoma cruzi. Kind of data set: Antitrypanosomal activity against Trypanosoma cruzi Tulahuen strain C2C4 amastigote forms infected in rat L6 cells after 96 hrs by CPRG/Nonidet reagent based photometric method. It counts as functional, organism-based. Particulars: Tulahuen strain C2C4, L6, 96 h.
In a further data set the test system is Leishmania donovani. Kind of data set: Antileishmanial activity against Leishmania donovani MHOM/ET/67/L82 axenic amastigotes after 72 hrs by alamar blue staining based fluorescence assay. It counts as functional, organism-based. Particulars: MHOM/ET/67/L82, 72 h. In general terms: Alamar Blue is a resazurin reagent that responds to reducing activity.
A further data set has as its system Plasmodium falciparum. In words: Antiprotozoal activity against erythrocytic stage of chloroquine and pyrimethamine resistant Plasmodium falciparum K1 assessed as reduction in [3H]-hypoxanthine incorporation preincubated for 24 hrs followed by [3H]-hypoxanthine addition measured after 24 hrs by scintillation counting method. It counts as functional, organism-based.

Data set [3] is described as follows: Cytotoxicity against rat L6 cells after 72 hrs by alamar blue staining based fluorescence assay. The format is cell-based.
A short description of data set [4]: Selectivity index, ratio of CC50 for rat L6 cells to IC50 for Trypanosoma cruzi Tulahuen strain C2C4 amastigote forms infected in rat L6 cells. It counts as toxicity, cell-based. Particulars: read-out: Ratio CC50/IC50.
The nature of data set [5]: Selectivity index, ratio of CC50 for rat L6 cells to IC50 for Leishmania donovani MHOM/ET/67/L82 axenic amastigotes. The format is toxicity. Particulars: read-out: Ratio CC50/IC50.
Data set [6] is described as follows: Selectivity index, ratio of CC50 for rat L6 cells to IC50 for erythrocytic stage of chloroquine and pyrimethamine resistant Plasmodium falciparum K1. The format is toxicity. Particulars: read-out: Ratio CC50/IC50.
Data set [7] concerns the target Sterol 14-alpha demethylase (Trypanosoma cruzi (strain CL Brener)) (UniProt Q7Z1V1). In words: Binding affinity to Trypanosoma cruzi CYP51 at 5 to 10 uM by 96-well based UV-vis spectroscopic method.
Data set [8] concerns Trypanosoma cruzi. In words: Potency index, ratio of benznidazole IC50 to test compound IC50 for Trypanosoma cruzi Tulahuen strain C2C4 amastigote forms infected in rat L6 cells. The format is functional.
Data set [9] concerns Mus musculus. In words: Toxicity in Balb/c mouse infected with Trypanosoma cruzi CL Brener assessed as hunched posture at 25 mg/kg, ip bid for 4 days measured during compound dosing. The format is organism-based. Particulars: in vivo, 96 h.
The test system of data set [10] is Mus musculus. In words: Toxicity in Balb/c mouse infected with Trypanosoma cruzi CL Brener assessed as reduction in mobility at 25 mg/kg, ip bid for 4 days measured during compound dosing. It counts as organism-based. Particulars: in vivo, 96 h.
The test system of data set [11] is Mus musculus. In words: Toxicity in Balb/c mouse infected with Trypanosoma cruzi CL Brener assessed as weight loss at 25 mg/kg, ip bid for 4 days measured during compound dosing. It counts as organism-based. Particulars: in vivo, 96 h.
Data set [12] has as its system Mus musculus. In words: Toxicity in Balb/c mouse infected with Trypanosoma cruzi CL Brener assessed as lack of grooming at 25 mg/kg, ip bid for 4 days measured during compound dosing. Particulars: in vivo, 96 h. It counts as organism-based.
Data set [13] deals with Trypanosoma cruzi. In words: Antitrypanosomal activity against luciferase-expressing Trypanosoma cruzi CL Brener infected in Balb/c mouse assessed as reduction in parasitemia at 2.5 mg/kg, ip bid for 4 days by bioluminescence assay relative to control. The format is functional. The arrangement: scale not given: the % may be the effect or the level left.
Data set [14] deals with Sterol 14-alpha demethylase (Trypanosoma cruzi (strain CL Brener)) (UniProt Q7Z1V1). Kind of data set: Binding affinity to Trypanosoma cruzi CYP51 by quartz cuvette based UV-vis spectroscopic method.
Sequence of Sterol 14-alpha demethylase (Trypanosoma cruzi (strain CL Brener)) (Q7Z1V1 whole entry, looked up): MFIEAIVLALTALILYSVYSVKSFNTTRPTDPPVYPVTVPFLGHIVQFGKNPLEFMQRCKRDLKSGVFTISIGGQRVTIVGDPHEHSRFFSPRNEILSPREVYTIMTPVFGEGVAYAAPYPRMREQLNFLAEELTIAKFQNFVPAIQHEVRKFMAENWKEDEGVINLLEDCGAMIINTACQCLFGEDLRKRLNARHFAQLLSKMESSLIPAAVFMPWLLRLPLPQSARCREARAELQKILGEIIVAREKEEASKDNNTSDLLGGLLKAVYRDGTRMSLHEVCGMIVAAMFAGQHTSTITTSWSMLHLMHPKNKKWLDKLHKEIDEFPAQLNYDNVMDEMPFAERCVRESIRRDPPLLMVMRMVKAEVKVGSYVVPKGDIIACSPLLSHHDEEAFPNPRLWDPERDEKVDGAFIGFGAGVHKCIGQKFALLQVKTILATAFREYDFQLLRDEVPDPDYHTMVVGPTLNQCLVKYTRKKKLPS

With `Clc1ccc(C(c2c[nH]cc2-c2ccc(Cl)c(Cl)c2)n2ccnc2)c(Cl)c1` (stereo not drawn), the IC50 (usually the midpoint of a concentration-inhibition curve) was found to be 12.5 µM in data set [1], 0.021 µM with Trypanosoma cruzi [2], 4.6 µM in the data set on Leishmania donovani and 0.14 µM in the data set on Plasmodium falciparum. In addition, the midpoint of cytotoxicity in data set [3], the CC50 at 72 h, lay at 3.64 µM. The values for the selectivity ratio in data set [4], in data set [5] and in [6] were 173, 1 and 26, respectively. Further, in data set [7], the result was Active.

On to `Clc1ccc(-c2c[nH]cc2C(c2ccc(Cl)cc2Cl)n2ccnc2)cc1` (stereo not drawn), for which the IC50 is 17.3 µM in [1], 0.035 µM in the data set with Trypanosoma cruzi [2], 3.77 µM in the data set with Leishmania donovani and 0.16 µM with Plasmodium falciparum. Besides, the CC50 (as a rule, the concentration at which the toxic effect on the cells reaches its halfway point) at 72 h in data set [3] turned out to be 9.61 µM. The selectivity ratio in data set [4] is 275; in data set [5], 3; in data set [6] it was 60. Also, in data set [7], the result was Active.

As to `Cn1cc(-c2ccc(Cl)cc2)c(C(c2ccc(Cl)cc2Cl)n2ccnc2)c1` (stereo not drawn), the concentration for half-maximal inhibition (IC50) was 36.5 µM in data set [1], 0.002 µM in the data set on Trypanosoma cruzi [2], 4.3 µM with Leishmania donovani and 0.17 µM with Plasmodium falciparum. Besides, the CC50 at 72 h in data set [3] was determined as 5.23 µM. Further, the selectivity ratio stood at 2620 in data set [4], 1 in data set [5] and 31 in [6]. Also, in the data set with Trypanosoma cruzi [8], the “Ratio IC50” value stood at 825. In addition, the Activity entry is on record as “Non-Toxic” in the data set with Mus musculus [9]; “Non-Toxic” with Mus musculus [10]; “Non-Toxic” with Mus musculus [11]; “Non-Toxic” in the data set with Mus musculus [12]; 98.5% in the data set on Trypanosoma cruzi [13]. Besides, the outcome in [7] and in data set [14] was Active.

On to `Clc1ccc(-c2c[nH]cc2C(c2ccc(Cl)cc2Cl)n2ccnc2)c(Cl)c1` (stereo not drawn), for which the IC50 in data set [1] was determined as 10.5 µM; in the data set on Trypanosoma cruzi [2], 0.034 µM; with Leishmania donovani, 1.19 µM; in the data set with Plasmodium falciparum it was 0.18 µM. Besides, the midpoint of cytotoxicity in data set [3], the CC50 at 72 h, lay at 9.86 µM. The selectivity ratio came to 290 in [4], 8 in data set [5] and 55 in data set [6]. The result in data set [7] was Active.
